# Source: patent US9902725B2, “Heterocyclic derivatives as RORgamma modulators” (GENFIT, priority 2014, dated 2018)
# Target: T1, RORγt ligand-binding domain (RORγt-LBD) (Homo sapiens, UniProt P51449)
# T1 construct: 20 nM recombinantly expressed RORγ-LBD fused to GST
# T1 sequence (P51449 269-508 limits assumed): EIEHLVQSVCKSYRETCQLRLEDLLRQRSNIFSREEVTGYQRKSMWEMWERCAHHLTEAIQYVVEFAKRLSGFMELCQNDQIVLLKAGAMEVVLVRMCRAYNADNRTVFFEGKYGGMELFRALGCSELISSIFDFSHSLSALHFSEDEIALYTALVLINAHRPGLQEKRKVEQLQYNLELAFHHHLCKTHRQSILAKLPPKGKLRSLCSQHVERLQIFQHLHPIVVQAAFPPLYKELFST
# Assay: Time-resolved FRET (TR-FRET) RORγt coactivator assay
# Type: biochemical
# Settings: GST-RORγ-LBD, biotinylated RIP140 peptide, coactivator displacement
# Source text: Time-resolved FRET (TR-FRET) RORγt coactivator assay was used to identify RORγ modulator compounds with ligand-dependent coactivator displacement. The assay uses a d2-labeled anti-GST antibody, synthetic N-terminally biotinylated peptide which is derived from nuclear receptor coactivator protein RIP140, and a RORγt ligand-binding domain (RORγt-LBD) that is tagged with glutathione-S-transferase (GST). The influence of compounds on the RORγ-peptide interaction relies on the binding dependent energy transfer from a donor to an acceptor fluorophore attached to the binding partner of interest. […] For reduction of background from compound fluorescence, TR-FRET method makes use of generic fluorophore labels and time resolved detection.
# The assays were done in a final volume of 20 μl in a 384 well plate in a CHAPS buffer (2 mM CHAPS; 1 mM DTT, 2 mM EDTA; 0.1% BSA), containing 20 nM recombinantly expressed RORγ-LBD fused to GST, 30 nM N-terminally biotinylated peptide, 1 nM streptavidin-terbium conjugate and 20 nM d2 labeled-anti-GST. Test compounds were diluted using 10 mM stock solution. The range of the final compound concentrations used in this test was from 0.3 nM to 30 μM (logarithmic scale). DMSO content of the samples was kept at 1%. The assay was equilibrated for 2 hours in the dark at room temperature in 384 well plates (Falcon). The signal was detected by an Ultra384 reader (TECAN). The results were visualized by plotting the ratio between the emitted light at 665 nm and 620 nm. A basal level of RORγ-peptide formation is observed in the absence of added compound. Compounds that promote coactivator displacement induce a concentration-dependent decrease in time-resolved fluorescent signal. Data were collected and analyzed using GraphPad Prism software (GraphPad Software V5.02, San Diego Calif. USA). IC50 in μM and Emax in % were reported for each compound.
row,Compound,IC50
1,"CC(C)(C)OC(=O)CCc1c[nH]c2ccc(CC(=O)NC(c3ccccc3)c3ccccc3N3CC=CCC3)cc12 (stereo not drawn) [Cpd. 127, tert-butyl 3-{5-[({phenyl[2-(1,2,3,6-tetrahydropyridin-1-yl)phenyl]methyl}carbamoyl)methyl]-1H-indol-3-yl}propanoate]",1 to 10 µM
2,"CC(C)(C)OC(=O)CCc1c[nH]c2ccc(CC(=O)NC3(c4ccccc4N4CCCC4)CCCC3)cc12 [Cpd. 129, tert-butyl 3-{5-[({1-[2-(pyrrolidin-1-yl)phenyl]cyclopentyl}carbamoyl)methyl]-1H-indol-3-yl}propanoate]",1 to 10 µM
3,"Cc1ccc(C(NC(=O)Cc2ccc3[nH]cc(CCC(=O)OC(C)(C)C)c3c2)c2ncccn2)c(N2CCCCC2)c1 (stereo not drawn) [Cpd. 131, tert-butyl 3-{5-[({[4-methyl-2-(piperidin-1-yl)phenyl](pyrimidin-2-yl)methyl}carbamoyl)methyl]-1H-indol-3-yl}propanoate]",< 1 µM
4,"Cc1ccc(C(CC(C)C)NC(=O)Cc2ccc3[nH]cc(CCC(=O)OC(C)(C)C)c3c2)c(N(C)C)c1 (stereo not drawn) [Cpd. 133, tert-butyl 3-{5-[({1-[2-(dimethylamino)-4-methylphenyl]-3-methylbutyl}carbamoyl)methyl]-1H-indol-3-yl}propanoate]",1 to 10 µM
5,"COc1ccc(N2CCCCC2)c(C(NC(=O)Cc2ccc3[nH]cc(CCC(=O)OC(C)(C)C)c3c2)c2ccccc2)c1 (stereo not drawn) [Cpd. 135, tert-butyl 3-{5-[({[5-methoxy-2-(piperidin-1-yl)phenyl](phenyl)methyl}carbamoyl)methyl]-1H-indol-3-yl}propanoate]",1 to 10 µM
6,"Cc1ccc(C(NC(=O)Cc2ccc3[nH]cc(CCC(=O)OC(C)(C)C)c3c2)c2ccc(C)s2)c(N2CCCCC2)c1 (stereo not drawn) [Cpd. 137, tert-butyl 3-{5-[({[4-methyl-2-(piperidin-1-yl)phenyl](5-methylthiophen-2-yl)methyl}carbamoyl)methyl]-1H-indol-3-yl}propanoate]",1 to 10 µM
7,"Cc1ccc(C(NC(=O)Cc2ccc3[nH]cc(CCC(=O)OC(C)(C)C)c3c2)c2nccs2)c(N2CCCCC2)c1 (stereo not drawn) [Cpd. 139, tert-butyl 3-{5-[({[4-methyl-2-(piperidin-1-yl)phenyl](1,3-thiazol-2-yl)methyl}carbamoyl)methyl]-1H-indol-3-yl}propanoate]",< 1 µM
8,"CC(C)(C)OC(=O)CCc1c[nH]c2ccc(CC(=O)NC3(c4ccccc4N4CCCCC4)CCCCC3)cc12 [Cpd. 143, tert-butyl 3-{5-[({1-[2-(piperidin-1-yl)phenyl]cyclohexyl}carbamoyl)methyl]-1H-indol-3-yl}propanoate]",1 to 10 µM
9,"CCOc1ccc(C(NC(=O)Cc2ccc3[nH]cc(CCC(=O)OC(C)(C)C)c3c2)c2ccccc2)c(N2CCCCC2)c1 (stereo not drawn) [Cpd. 149, tert-butyl 3-{5-[({[4-ethoxy-2-(piperidin-1-yl)phenyl](phenyl)methyl}carbamoyl)methyl]-1H-indol-3-yl}propanoate]",1 to 10 µM
10,"Cc1cccc(C(NC(=O)Cc2ccc3[nH]cc(CCC(=O)OC(C)(C)C)c3c2)c2ccccc2N2CCCCC2)c1 (stereo not drawn) [Cpd. 157, tert-butyl 3-[5-({[(3-methylphenyl)[2-(piperidin-1-yl)phenyl]methyl]carbamoyl}methyl)-1H-indol-3-yl]propanoate]",< 1 µM
11,"Cc1ccc(C(NC(=O)Cc2ccc3[nH]cc(CCC(=O)OC(C)(C)C)c3c2)c2ccccc2)c(N)c1 (stereo not drawn) [Cpd. 183, tert-butyl 3-[5-({[(2-amino-4-methylphenyl)(phenyl)methyl]carbamoyl}methyl)-1H-indol-3-yl]propanoate]",1 to 10 µM
12,"Cc1ccc(C(C(=O)NCc2ccc3[nH]cc(CCC(=O)OC(C)(C)C)c3c2)c2ccccc2)c(N2CCCCC2)c1 (stereo not drawn) [Cpd. 208, tert-butyl 3-[5-({2-[4-methyl-2-(piperidin-1-yl)phenyl]-2-phenylacetamido}methyl)-1H-indol-3-yl]propanoate]",< 1 µM
13,"CCOC(=O)CCCC(=O)c1c[nH]c2ccc(CC(=O)NC(c3ccccc3)c3ccccc3N3CCCCC3)cc12 (stereo not drawn) [Cpd. 214, ethyl 5-oxo-5-{5-[({phenyl[2-(piperidin-1-yl)phenyl]methyl}carbamoyl)methyl]-1H-indol-3-yl}pentanoate]",1 to 10 µM
14,"CCCCC(NC(=O)Cc1ccc2[nH]cc(CCC(=O)OC(C)(C)C)c2c1)c1ccccc1N(CC)CC (stereo not drawn) [Cpd. 218, tert-butyl 3-{5-[({1-[2-(diethylamino)phenyl]pentyl}carbamoyl)methyl]-1H-indol-3-yl}propanoate]",1 to 10 µM
15,"COC(=O)Cc1c[nH]c2ccc(CC(=O)NC(c3ccccc3)c3ccc(C)cc3Br)cc12 (stereo not drawn) [Cpd. 220, methyl 2-[5-({[(2-bromo-4-methylphenyl)(phenyl)methyl]carbamoyl}methyl)-1H-indol-3-yl]acetate]",< 1 µM
16,"COC(=O)Cc1c[nH]c2ccc(CC(=O)NC(c3ccc(C)s3)c3ccc(C)cc3C)cc12 (stereo not drawn) [Cpd. 222, methyl 2-[5-({[(2,4-dimethylphenyl)(5-methylthiophen-2-yl)methyl]carbamoyl}methyl)-1H-indol-3-yl]acetate]",1 to 10 µM
17,"COC(=O)Cc1c[nH]c2ccc(CC(=O)NC(c3ccccc3)c3ccccc3N3CCOCC3)cc12 (stereo not drawn) [Cpd. 224, methyl 2-{5-[({[2-(morpholin-4-yl)phenyl](phenyl)methyl}carbamoyl)methyl]-1H-indol-3-yl}acetate]",< 1 µM
18,"Cc1ccc(C(NC(=O)Cc2ccc3[nH]cc(CCC(=O)OC(C)(C)C)c3c2)c2ncccn2)c(Br)c1 (stereo not drawn) [Cpd. 226, tert-butyl 3-[5-({[(2-bromo-4-methylphenyl)(pyrimidin-2-yl)methyl]carbamoyl}methyl)-1H-indol-3-yl]propanoate]",< 1 µM
19,"Cc1ccc(C(NC(=O)Cc2ccc3[nH]cc(CCC(=O)OC(C)(C)C)c3c2)c2ccccc2)c2[nH]ccc12 (stereo not drawn) [Cpd. 228, tert-butyl 3-[5-({[(4-methyl-1H-indol-7-yl)(phenyl)methyl]carbamoyl}methyl)-1H-indol-3-yl]propanoate]",1 to 10 µM
20,"CCCCC(NC(=O)Cc1ccc2[nH]cc(CCC(=O)OC(C)(C)C)c2c1)c1ccc(C)cc1N1CCCCC1 (stereo not drawn) [Cpd. 230, tert-butyl 3-{5-[({1-[4-methyl-2-(piperidin-1-yl)phenyl]pentyl}carbamoyl)methyl]-1H-indol-3-yl}propanoate]",1 to 10 µM
21,"CC(C)(C)OC(=O)CCc1c[nH]c2ccc(CC(=O)NC(c3ccccc3)c3ccccc3N3CCCC(F)(F)C3)cc12 (stereo not drawn) [Cpd. 232, tert-butyl 3-{5-[({[2-(3,3-difluoropiperidin-1-yl)phenyl](phenyl)methyl}carbamoyl)methyl]-1H-indol-3-yl}propanoate]",< 1 µM
22,"CC(C)(C)OC(=O)NC(=N)NC(=O)CCc1c[nH]c2ccc(CC(=O)NC(c3ccccc3)c3ccccc3N3CCCCC3)cc12 (stereo not drawn) [Cpd. 234, tert-butyl N-[(3-{5-[({phenyl[2-(piperidin-1-yl)phenyl]methyl}carbamoyl)methyl]-1H-indol-3-yl}propanamido)methanimidoyl]carbamate]",1 to 10 µM
23,"CCOC(=O)CCc1n[nH]c2ccc(CC(=O)NC(c3ccccc3)c3ccccc3N3CCCCC3)cc12 (stereo not drawn) [Cpd. 236, ethyl 3-{5-[({phenyl[2-(piperidin-1-yl)phenyl]methyl}carbamoyl)methyl]-1H-indazol-3-yl}propanoate]",< 1 µM
24,"COC(=O)Cc1c[nH]c2ccc(CC(=O)NC(c3ccccc3)c3cccc(N4CCCCC4)c3)cc12 (stereo not drawn) [Cpd. 238, methyl 2-{5-[({phenyl[3-(piperidin-1-yl)phenyl]methyl}carbamoyl)methyl]-1H-indol-3-yl}acetate]",1 to 10 µM
25,"CC(C)CC(NC(=O)Cc1ccc2[nH]cc(CCC(=O)OC(C)(C)C)c2c1)c1ccccc1OC(C)C (stereo not drawn) [Cpd. 240, tert-butyl 3-{5-[({3-methyl-1-[2-(propan-2-yloxy)phenyl]butyl}carbamoyl)methyl]-1H-indol-3-yl}propanoate]",< 1 µM
26,"CCOc1ccc(C(NC(=O)Cc2ccc3[nH]cc(CCC(=O)OC(C)(C)C)c3c2)c2ccccc2)c(OCC)c1 (stereo not drawn) [Cpd. 246, tert-butyl 3-[5-({[(2,4-diethoxyphenyl)(phenyl)methyl]carbamoyl}methyl)-1H-indol-3-yl]propanoate]",< 1 µM
27,"Cc1ccc(C(CC(C)C)NC(=O)Cc2ccc3[nH]cc(CCC(=O)OC(C)(C)C)c3c2)c(OC(C)C)c1 (stereo not drawn) [Cpd. 248, tert-butyl 3-{5-[({3-methyl-1-[4-methyl-2-(propan-2-yloxy)phenyl]butyl}carbamoyl)methyl]-1H-indol-3-yl}propanoate]",1 to 10 µM
